Measurements taken from US9592307B2, “Compound and photoacoustic imaging contrast medium containing the compound” (CANON KABUSHIKI KAISHA, priority 2012, dated 2017).
Ends that are not written are not given here.

Key:
[1] = rat, ICG administered to the blood alone; cited from earlier work
[2] = Retentivity in blood, Colon 26 tumor-bearing mice; assay type: in vivo, mouse; conditions: tail vein, 13 nmol dye, 24 hours after administration
Experimental: In order to examine the retentivity in blood and the tumor accumulation of the compound prepared as described above, M5k-ICG, M10k-ICG, M20k-ICG, M30k-ICG, M40k-ICG, and D20k-ICG2 were administered to tail veins of tumor-bearing mice which had been transplanted a Colon 26 cell line. The amount of administration was specified to be 13 nmol in terms of the amount of dye.
A blood sample was taken from a mouse 24 hours after administration, and the blood, 1% Triron, and DMSO were mixed at 2:9:9 in a plastic tube. The amount of dye in the blood was quantified by using IVIS (registered trademark) Imaging System 200 Series (produced by Caliper Life Science Inc.) and measuring the fluorescent intensity in the state of the plastic tube. The proportion of the amount of migration of the dye to the blood relative to the amount (dye 13 nmol) of administration (% injected dose: abbreviated to % ID) per unit weight of the blood is shown in Table 8 as the retentivity of the compound in blood (% ID/g). […]
An intravenous injection of 100 microliters (13 nmol in terms of dye) of M20k-ICGATT into a tumor-bearing mouse model was performed, where a Colon 26 cell was subcutaneously transplanted into the BALB/c Slc-nu/nu mouse. The accumulation in the Colon 26 cell mass and the blood 24 hours after the administration was evaluated by the method described in Example 12.

[3] = system: Colon 26 mouse colon cancer cells containing artificially introduced HER2 genes; test: Tumor accumulation of PEG including capture molecule, Colon 26 (HER2) versus Colon 26 (WT) tumors; assay type: in vivo; conditions: intravenous, 13 nmol in terms of ICG, 24 hours after administration
Description: In the evaluation of tumor accumulation, female outbred line BALB/c Slc-nu/nu mouse (6 week-old at the time of purchase) (Japan SLC Inc.) was used. The mouse was adapted to an environment in which a diet and drinking water were able to be consumed freely for a week before the mouse was transplanted a tumor, while standard diet and bed were employed. About 1 week before an imaging experiment, 1×10^6 of Colon 26 mouse colon cancer cells (RIKEN) were subcutaneously injected into each of the right shoulder and the right thigh of the mouse and 1×10^6 of Colon 26 mouse colon cancer cells containing artificially introduced HER2 genes were subcutaneously injected into each of the left shoulder and the left thigh of the mouse. All tumors became established until the experiment and the weights of the mice were 17 to 22 g. […] The amount of dye in the cancer tissue was quantified by using IVIS (registered trademark) Imaging System 200 Series (XENOGEN) and measuring the fluorescent intensity of the solution of dye extracted from the tumor tissue and the standard solution for calibration in the state of the plastic tube. […]
In addition, ratios of the amount of accumulation into the Colon 26 mouse colon cancer cells containing artificially introduced HER2 genes relative to the amount of accumulation into the Colon 26 mouse colon cancer cells were calculated and are summarized in Table 12. […]

| Retentivity in blood [2] [% ID] | Molecule | Time after administration at which photoacoustic signal is reduced to the same level as that of the blood [1] | Colon26 (HER2)/Colon26 (WT) Ratio of amount of tumor accumulation [3] |
| --- | --- | --- | --- |
| 0.16 | CC1(C)C(/C=C/C=C/C=C/C=C2\N(CCCCS(=O)(=O)O)c3ccc4ccccc4c3C2(C)C)=[N+](CCCCS(=O)(=O)[O-])c2ccc3ccccc3c21 [ICG, Indocyanine Green] | several tens of minutes | – |
| – | pe-PEG20: PEG ME-200MA (MW 20,000) modified with ICG and peptide MARSGLGGKGSC (also: conjugated to PEG ME-200MA (20 kDa) together with ICG) | – | 0.76 |
| – | pe-PEG40: PEG ME-400MA (MW 40,000) modified with ICG and peptide MARSGLGGKGSC (also: conjugated to PEG ME-400MA (40 kDa) together with ICG) | – | 0.88 |
